Source: PubChem BioAssay (NCI)
Values joined by “and” are separate entries in the source; they are usually repeats but may differ in a detail not shown here. Equal entries are not always repeated.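 Tested at 5 concentrations; 48 h exposure; 96-well plates; endpoints linearly interpolated, else capped at highest concentration. GI50 marks 50% less growth. TGI is the concentration that stops growth completely.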

Experiments:
Assay in all cases: DTP human tumour cell line panel, 48 h
OVCAR-8 ovarian = tested on: OVCAR-8 ovarian
LXFL 529 NSCLC = tested on: LXFL 529 NSCLC
SK-MEL-28 melanoma = tested on: SK-MEL-28 melanoma
NCI-H23 lung = tested on: NCI-H23 lung
DLD-1 colon = tested on: DLD-1 colon
UO-31 renal = tested on: UO-31 renal
UACC-62 melanoma = tested on: UACC-62 melanoma
SF-268 CNS = tested on: SF-268 CNS
BT-549 breast = tested on: BT-549 breast
PC-3 prostate = tested on: PC-3 prostate

Question: Which TGI (OVCAR-8 ovarian) does the source give for `C/C=C(/CCC1NCCC2c3ccccc3NC12)[Si](C)(C)C` (centres undefined) here?
Answer: 21.1 µM

Question: What about the TGI (LXFL 529 NSCLC) of the same compound?
Answer: 13 µM

Question: And the TGI (SK-MEL-28 melanoma)?
Answer: 16.9 µM

Question: What about the TGI (NCI-H23 lung) of the same compound?
Answer: 28.8 µM

Question: What about the TGI (DLD-1 colon) of the same compound?
Answer: 17.1 µM

Question: What about the TGI (UO-31 renal) of the same compound?
Answer: 20.2 µM

Question: And the TGI (UACC-62 melanoma)?
Answer: 26.4 µM

Question: What about the TGI (SF-268 CNS) of the same compound?
Answer: 23.5 µM

Question: Which results are given for `CC(=O)[CH-]C(=O)c1ccccc1.CC(=O)[CH-]C(=O)c1ccccc1.CC[C@H](/C=C/C(C)[C@H]1CCC2[C@@H]3CC=C4C[C@@H]([O-])CC[C@]4(C)C3CC[C@@]21C)C(C)C.CC[O-].[Ti+4]` (some centres undefined)?
Answer: GI50 (OVCAR-8 ovarian): > 100000 nM; TGI (OVCAR-8 ovarian): > 100 µM; GI50 (LXFL 529 NSCLC): > 100 µM; TGI (LXFL 529 NSCLC): > 100 µM; GI50 (SK-MEL-28 melanoma): > 100000 nM; TGI (SK-MEL-28 melanoma): > 100 µM; GI50 (NCI-H23 lung): > 100000 nM; TGI (NCI-H23 lung): > 100 µM; GI50 (DLD-1 colon): > 100 µM; TGI (DLD-1 colon): > 100 µM; GI50 (UO-31 renal): > 100000 nM; TGI (UO-31 renal): > 100 µM; GI50 (UACC-62 melanoma): > 100000 nM; TGI (UACC-62 melanoma): > 100 µM; GI50 (SF-268 CNS): > 100000 nM; TGI (SF-268 CNS): > 100 µM

Question: For `Cn1c(=O)c2ccc(-c3ccc(Br)cc3)nc2n(C)c1=O`, which TGI (OVCAR-8 ovarian) is on record?
Answer: > 100 µM

Question: What about the TGI (LXFL 529 NSCLC) of the same compound?
Answer: > 100 µM

Question: What about the TGI (SK-MEL-28 melanoma) of the same compound?
Answer: > 100 µM

Question: What about the TGI (NCI-H23 lung) of the same compound?
Answer: > 100 µM

Question: And the TGI (DLD-1 colon)?
Answer: > 100 µM

Question: And the TGI (UO-31 renal)?
Answer: > 100 µM

Question: What about the TGI (UACC-62 melanoma) of the same compound?
Answer: > 100 µM

Question: What about the TGI (SF-268 CNS) of the same compound?
Answer: > 100 µM

Question: How did the GI50 (OVCAR-8 ovarian) turn out when `C=C1COC(O)(C2OCOC(C3CC(=O)NC(=O)C3)C2O)C1C` (centres undefined) was run?
Answer: 4.25 nM and 10.4 nM

Question: And the TGI (OVCAR-8 ovarian)?
Answer: 0.0413 µM and 0.0509 µM

Question: What about the TGI (LXFL 529 NSCLC) of the same compound?
Answer: 0.0897 µM and 0.101 µM

Question: What about the GI50 (BT-549 breast) of the same compound?
Answer: 18.7 nM

Question: And the TGI (BT-549 breast)?
Answer: 0.0739 µM

Question: What about the GI50 (SK-MEL-28 melanoma) of the same compound?
Answer: 2.22 nM

Question: And the TGI (SK-MEL-28 melanoma)?
Answer: 0.0377 µM

Question: And the GI50 (NCI-H23 lung)?
Answer: 2.67 nM

Question: And the TGI (NCI-H23 lung)?
Answer: 0.0144 µM and 0.0338 µM

Question: What about the GI50 (DLD-1 colon) of the same compound?
Answer: 0.0109 µM

Question: What about the TGI (DLD-1 colon) of the same compound?
Answer: 0.0556 µM and 0.0675 µM

Question: What about the GI50 (UO-31 renal) of the same compound?
Answer: 2.04 nM

Question: What about the TGI (UO-31 renal) of the same compound?
Answer: 0.0278 µM and 0.0215 µM

Question: And the GI50 (UACC-62 melanoma)?
Answer: 2.75 nM and 13.4 nM

Question: And the TGI (UACC-62 melanoma)?
Answer: 0.0247 µM and 0.131 µM

Question: What about the GI50 (PC-3 prostate) of the same compound?
Answer: 6.29 nM

Question: And the TGI (PC-3 prostate)?
Answer: 0.0501 µM

Question: What about the GI50 (SF-268 CNS) of the same compound?
Answer: 5.77 nM

Question: What about the TGI (SF-268 CNS) of the same compound?
Answer: 0.0423 µM and 0.033 µM

Question: With `COc1cccc(NC(=O)C(C)(C)C)c1SSc1c(NC(=O)C(C)(C)C)cccc1OC` as the compound, how does the TGI (OVCAR-8 ovarian) read?
Answer: 35.4 µM

Question: What about the TGI (LXFL 529 NSCLC) of the same compound?
Answer: 29.9 µM

Question: And the TGI (SK-MEL-28 melanoma)?
Answer: > 57.9 µM

Question: What about the TGI (NCI-H23 lung) of the same compound?
Answer: > 100 µM

Question: What about the TGI (DLD-1 colon) of the same compound?
Answer: > 61.8 µM

Question: What about the TGI (UO-31 renal) of the same compound?
Answer: > 88.9 µM

Question: What about the TGI (UACC-62 melanoma) of the same compound?
Answer: 45.4 µM

Question: And the TGI (SF-268 CNS)?
Answer: 32.7 µM

Question: `Cc1cc2nc3ccc(=[N+](C)C)cc-3sc2cc1N` was tested. Which GI50 (OVCAR-8 ovarian) did it give?
Answer: 270 nM and 800 nM

Question: And the TGI (OVCAR-8 ovarian)?
Answer: 1.99 µM and 7.22 µM and 7.3 µM

Question: And the TGI (LXFL 529 NSCLC)?
Answer: 18.1 µM

Question: And the GI50 (BT-549 breast)?
Answer: 2750 nM and 2090 nM

Question: And the TGI (BT-549 breast)?
Answer: 19.7 µM and 25.2 µM and 18.2 µM

Question: What about the GI50 (SK-MEL-28 melanoma) of the same compound?
Answer: 1640 nM and 1650 nM

Question: What about the TGI (SK-MEL-28 melanoma) of the same compound?
Answer: 4.65 µM and 27 µM and 3.56 µM

Question: And the GI50 (NCI-H23 lung)?
Answer: 388 nM and 381 nM

Question: What about the TGI (NCI-H23 lung) of the same compound?
Answer: 2.78 µM and 9.3 µM and 2.51 µM

Question: What about the TGI (DLD-1 colon) of the same compound?
Answer: 23.5 µM

Question: And the GI50 (UO-31 renal)?
Answer: 1730 nM and 1610 nM

Question: What about the TGI (UO-31 renal) of the same compound?
Answer: 9.11 µM and 25.1 µM and 10.8 µM

Question: And the GI50 (UACC-62 melanoma)?
Answer: 541 nM and 1070 nM

Question: What about the TGI (UACC-62 melanoma) of the same compound?
Answer: 2.21 µM and 5.49 µM and 4.52 µM

Question: What about the GI50 (PC-3 prostate) of the same compound?
Answer: 121 nM and 173 nM

Question: And the TGI (PC-3 prostate)?
Answer: 2.65 µM and 7.2 µM and 3.43 µM

Question: And the GI50 (SF-268 CNS)?
Answer: 351 nM and 956 nM

Question: `Cc1ccc(NC(=O)CC/C(CC(=O)C(C)(C)C)=N/NC(=O)C[N+](C)(C)C)cc1C` was tested. Which TGI (OVCAR-8 ovarian) did it give?
Answer: > 100 µM

Question: What about the TGI (LXFL 529 NSCLC) of the same compound?
Answer: > 100 µM

Question: And the TGI (SK-MEL-28 melanoma)?
Answer: > 100 µM

Question: And the TGI (NCI-H23 lung)?
Answer: > 100 µM

Question: What about the TGI (DLD-1 colon) of the same compound?
Answer: > 100 µM

Question: And the TGI (UO-31 renal)?
Answer: > 100 µM

Question: And the TGI (UACC-62 melanoma)?
Answer: > 100 µM

Question: And the TGI (SF-268 CNS)?
Answer: > 100 µM

Question: Which TGI (OVCAR-8 ovarian) does the source give for `COC(=O)NN1C(C)=C(C(=O)OC)C2(C#N)C(C(=O)OC)=C(C)N(NC(=O)OC)C12N` (centres undefined) here?
Answer: > 100 µM

Question: And the TGI (LXFL 529 NSCLC)?
Answer: > 100 µM

Question: And the TGI (SK-MEL-28 melanoma)?
Answer: > 100 µM

Question: And the TGI (NCI-H23 lung)?
Answer: > 100 µM

Question: What about the TGI (DLD-1 colon) of the same compound?
Answer: > 100 µM

Question: And the TGI (UO-31 renal)?
Answer: > 100 µM

Question: What about the TGI (UACC-62 melanoma) of the same compound?
Answer: > 100 µM

Question: And the TGI (SF-268 CNS)?
Answer: > 100 µM

Question: What does the source list for `COC(=O)C[CH2][Ge]([CH3])([CH3])[S]c1ccccc1`?
Answer: GI50 (OVCAR-8 ovarian): 25200 nM; TGI (OVCAR-8 ovarian): 83.8 µM; GI50 (LXFL 529 NSCLC): 24 µM; TGI (LXFL 529 NSCLC): 81.1 µM; GI50 (SK-MEL-28 melanoma): 36000 nM; TGI (SK-MEL-28 melanoma): > 100 µM; GI50 (NCI-H23 lung): 43300 nM; TGI (NCI-H23 lung): > 100 µM; GI50 (DLD-1 colon): 20.3 µM; TGI (DLD-1 colon): 42.9 µM; GI50 (UO-31 renal): 15600 nM; TGI (UO-31 renal): 33.1 µM; GI50 (UACC-62 melanoma): 21900 nM; TGI (UACC-62 melanoma): 60.9 µM; GI50 (SF-268 CNS): 18200 nM; TGI (SF-268 CNS): 43.7 µM

Question: For `NC(=O)c1ncn(CCN2CCN(C(=O)NCCCCCCNC(=O)N3CCN(CCn4cnc(C(N)=O)c4N)CC3)CC2)c1N`, which TGI (OVCAR-8 ovarian) is on record?
Answer: > 100 µM

Question: And the TGI (LXFL 529 NSCLC)?
Answer: > 100 µM

Question: What about the TGI (SK-MEL-28 melanoma) of the same compound?
Answer: > 100 µM

Question: And the TGI (NCI-H23 lung)?
Answer: > 100 µM

Question: And the TGI (DLD-1 colon)?
Answer: > 100 µM

Question: What about the TGI (UO-31 renal) of the same compound?
Answer: > 100 µM

Question: And the TGI (UACC-62 melanoma)?
Answer: > 100 µM

Question: What about the TGI (SF-268 CNS) of the same compound?
Answer: > 100 µM

Question: Which results are given for `Cc1cc(=O)n2c3c(c4c(cc13)c(CO)cc(=O)n4C)OC2`?
Answer: TGI (OVCAR-8 ovarian): 39.1 µM; TGI (LXFL 529 NSCLC): 34 µM; TGI (SK-MEL-28 melanoma): 78.7 µM; TGI (NCI-H23 lung): 48.1 µM; TGI (DLD-1 colon): > 100 µM; TGI (UO-31 renal): 40.2 µM; TGI (UACC-62 melanoma): 25.9 µM; TGI (SF-268 CNS): 52.6 µM
